In one experiment the test system is ulcerative colitis. Put plainly: Case report: patient with ulcerative colitis (pancolitis) treated with secnidazole, rifampicin and doxycycline. It counts as in vivo, human. As to conditions: patient history before the antibiotic combination. Here is the method:
A patient with a 12 year history of ulcerative colitis presented with 4-15 diarrhoeal stools every day and 2-3 at night.
They were commenced on secnidazole (400 mg three times daily) combined with rifampicin (increasing from 150 mg twice daily to 300 mg twice daily after four weeks), together with doxycycline (50 mg twice daily).
They then continued on the same regimen a further six months when a colonoscopy was repeated.

In experiment [1] the test system is inflammatory bowel disease (IBD). Put plainly: Inventor's clinical experience with higher-dose rifaximin in colitis / IBD. Type of experiment: in vivo, human. An excerpt:
Current doses are almost always an under-dosing with rifaximin; and there is no external dose reference or independent dose ranging study in colitis to be guided by.

As for `C[C@]12C=CC(=O)C=C1CC[C@@H]1[C@@H]2C(=O)C[C@@]2(C)[C@H]1CC[C@]2(O)C(=O)CO` [prednisone], the “response to previous anti-inflammatory medications” value (shortened to “response”) in the experiment with ulcerative colitis was “not achieving more than a transient response”.

For `CO[C@H]1/C=C/O[C@@]2(C)Oc3c(C)c(O)c4c(O)c(c5c(nc6cc(C)ccn65)c4c3C2=O)NC(=O)/C(C)=C\C=C\[C@H](C)[C@H](O)[C@@H](C)[C@@H](O)[C@@H](C)[C@H](OC(C)=O)[C@@H]1C` [rifaximin], in experiment [1] (higher dose spread over 3 doses/day (3.3 g per day) versus current recommended doses (550 mg twice daily)), the “inhibiting inflammation by inhibiting the infection(s)” value was “works far better”. Also, the “remission with rifaximin alone” value in experiment [1] (only using the higher and more frequent dosing) is “can be used to achieve remission”.

As to `Cn1cnc([N+](=O)[O-])c1Sc1ncnc2nc[nH]c12` [azathioprine], the “response” value in the experiment on ulcerative colitis was “not achieving more than a transient response”.

With `Nc1ccc(O)c(C(=O)O)c1` [mesalazine], the “response” value in the experiment with ulcerative colitis is given as “not achieving more than a transient response”.

(Values after patent US20210000806A1, “COMPOSITIONS AND METHODS FOR TREATING INFLAMMATORY BOWEL DISEASE AND FUSOBACTERIA-CAUSED OR RELATED DISEASES AND CONDITIONS” (priority 2018, published 2021).)
